Experimental data as given in patent US20090238808A1, “Process for the identification of novel enzyme interacting compounds” (priority 2005, published 2009).

What was measured:
Experiment in all cases: In-lysate competition binding with kinobeads, Jurkat lysate, iTRAQ MS, relative intensity of identified proteins (Table 22)
Details in all cases: DMSO control = 1.0
[1] = target: T1, proteins captured on kinobeads from Jurkat cell lysate (Homo sapiens, UniProt P42684)
T1 construct: endogenous in cells; host or cells: Jurkat clone E6-1 lysate
Method: (§1) This example illustrates competition binding in cell lysates (see particularly the third aspect of the invention). A test compound, Bisindolylmaleimide VIII (Bis VIII, a well known kinase inhibitor; Davies et al., 2000. Specificity and mechanism of action of some commonly used protein kinase inhibitors. Biochemical Journal 351 (Pt 1): 95-105) was added to a cell lysate thereby allowing the test compound to bind to the target proteins in the lysate. Then the lysate was contacted with the kinobeads affinity matrix to capture remaining free target proteins. The proteins bound to the kinobeads matrix were then eluted with detergent-containing buffer, separated on a SDS-polyacryamide gel and analyzed by immunodetection (Western blots) or mass spectrometry detection.
(§2) For the quantitative detection of proteins by mass spectrometry proteins were eluted from the affinity matrix and subsequently separated by SDS-Polyacrylamide gel elecrophoresis. Suitable gel areas were cut out and subjected to in-gel proteolytic digestion with trypsin.
(§3) Four tryptic digest samples (corresponding to three different Bis VIII concentrations in the lysate and one DMSO control) were labeled with ITRAQ reagents and the combined samples were analyzed in a single LC-MS/MS mass spectrometry analysis followed by peak quantification in the MS/MS spectrum (Ross et al., 2004. Multiplexed protein quantitation in Saccharomyces cerevisiae using amine-reactive isobaric tagging reagents. Mol. Cell. Proteomics 3(12): 1154-1169). […] Binding curves for individual kinases are shown (FIG. 5). The relative intensity 50 (RI50) values representing the affinity of kinase-compound pairs are similar to IC50 values reported by kinase enzyme assays (Davies et al., 2000. Specificity and mechanism of action of some commonly used protein kinase inhibitors. Biochemical Journal 351 (Pt 1): 95-105).
(§4) Aliqots of Jurkat lysate (10 mg protein) were incubated with different Bis VIII concentrations for one hour at 4° C. (0.025 μM, 0.074 μM, 0.22 μM, 0.67 μM, 2.0 μM and 6.0 μM final concentration of Bis VIII). To this end Bis VIII solutions were prepared in 100% DMSO as solvent that corresponded to 200 fold desired final Bis VIII concentration (Bis VIII from Alexis Biochemicals cat. number ALX 270-056). Five μl of these solutions were added to 1 ml of lysate resulting in the indicated final concentrations. For a control experiment 5 μl of DMSO without Bis VIII were used.
(§5) To each preincubated lysate sample 40 μl of kinobeads (see example 1) were added and incubated for one hour at 4° C. During the incubation the tubes were rotated on an end-over-end shaker (Roto Shake Genie, Scientific Industries Inc.). Beads were collected by centrifugation, transfered to Mobicol-columns (MoBiTech 10055) and washed with 10 ml 1×DP buffer containing 0.4% NP40 detergent, followed by a wash with 5 ml 1×DP buffer with 0.2% NP40. To elute the bound proteins, 100 μl 2×SDS sample buffer was added, the column was heated for 30 minutes at 50° C. and the eluate was transferred to a microfuge tube by centrifugation. Proteins were then separated by SDS-Polyacrylamide electrophoresis (SDS-PAGE). The composition and preparation of buffers is described in example 2.
(§6) The peptide extracts of samples treated with different concentrations of the test compound (0.074 μM, 0.22 μM and 0.67 μM Bis VIII) and the solvent control (0.5% DMSO) were treated with different isomers of the isobaric tagging reagent (iTRAQ Reagents Multiplex Kit, part number 4352135, Applied Biosystems, Foster City, Calif., USA). The iTRAQ reagents are a set of multiplexed, amine-specific, stable isotope reagents that can label all peptides in up to four different biological samples enabling simultaneous identification and quantitation of peptides. The iTRAQ reagents were used according to instructions provided by the manufacturer. […]

[2] = test system: proteins captured on kinobeads from Jurkat cell lysate; parameters: species or system human
Method: as §1, §2, §3, §4, §5, §6

[3] = target: T2, proteins captured on kinobeads from Jurkat cell lysate (Homo sapiens, UniProt Q2M2I8)
T2 construct: endogenous in cells; host or cells: Jurkat clone E6-1 lysate
Method: as §1, §2, §3, §4, §5, §6

[4] = target: T3, proteins captured on kinobeads from Jurkat cell lysate (Homo sapiens, UniProt P15559)
T3 construct: endogenous in cells; host or cells: Jurkat clone E6-1 lysate
Method: as §1, §2, §3, §4, §5, §6

[5] = target: T4, proteins captured on kinobeads from Jurkat cell lysate (Homo sapiens, UniProt P51451)
T4 construct: endogenous in cells; host or cells: Jurkat clone E6-1 lysate
Method: as §1, §2, §3, §4, §5, §6

[6] = target: T5, proteins captured on kinobeads from Jurkat cell lysate (Homo sapiens, UniProt Q6PHR2)
T5 construct: endogenous in cells; host or cells: Jurkat clone E6-1 lysate
Method: as §1, §2, §3, §4, §5, §6

[7] = target: T6, proteins captured on kinobeads from Jurkat cell lysate (Homo sapiens, UniProt Q08881)
T6 construct: endogenous in cells; host or cells: Jurkat clone E6-1 lysate
Method: as §1, §2, §3, §4, §5, §6

[8] = target: T7, proteins captured on kinobeads from Jurkat cell lysate (Homo sapiens, UniProt P06239)
T7 construct: endogenous in cells; host or cells: Jurkat clone E6-1 lysate
Method: as §1, §2, §3, §4, §5, §6

[9] = target: T8, proteins captured on kinobeads from Jurkat cell lysate (Homo sapiens, UniProt Q9H0K1)
T8 construct: endogenous in cells; host or cells: Jurkat clone E6-1 lysate
Method: as §1, §2, §3, §4, §5, §6

- Relative Intensity, ARG (ABL2) ([1]; 0.074 uM in lysate): 0.96
- Relative Intensity, ARG (ABL2) ([1]; 0.67 uM in lysate): 0.91
- Relative Intensity, AAK1 ([3]; 0.074 uM in lysate): 0.82
- Relative Intensity, AAK1 ([3]; 0.67 uM in lysate): 0.75
- Relative Intensity, NQO1 ([4]; 0.074 uM in lysate): 0.84
- Relative Intensity, NQO1 ([4]; 0.67 uM in lysate): 0.87
- Relative Intensity, BLK ([5]; 0.074 uM in lysate): 0.90
- Relative Intensity, BLK ([5]; 0.67 uM in lysate): 0.83
- Relative Intensity, ULK3 ([6]; 0.074 uM in lysate): 0.95
- Relative Intensity, ULK3 ([6]; 0.67 uM in lysate): 1.15
- Relative Intensity, ITK ([7]; 0.074 uM in lysate): 0.80
- Relative Intensity, ITK ([7]; 0.67 uM in lysate): 0.91
- Relative Intensity, LCK ([8]; 0.074 uM in lysate): 0.87
- Relative Intensity, LCK ([8]; 0.67 uM in lysate): 0.94
- Relative Intensity, QIK (SNF1LK2) ([9]; 0.074 uM in lysate): 0.93
- Relative Intensity, QIK (SNF1LK2) ([9]; 0.67 uM in lysate): 0.98
SMILES: Cn1cc(C2=C(c3cn(CCCN)c4ccccc34)C(=O)NC2=O)c2ccccc21 [Bis VIII, Bisindolylmaleimide VIII]
- Relative Intensity, Abl1 ([2]; 0.074 uM in lysate): 0.81
- Relative Intensity, Abl1 ([2]; 0.67 uM in lysate): 1.03
